The text below walks through data of article PMC9697614, “Rufinamide, a Triazole-Derived Antiepileptic Drug, Stimulates Ca^2+-Activated K^+ Currents While Inhibiting Voltage-Gated Na^+ Currents” (International Journal of Molecular Sciences, 2022).

The target of the assay is T1, large-conductance Ca2+-activated K+ channel (BKCa, KCa1.1, KCNMA1, Slo1) (Rattus norvegicus, UniProt Q62976).
T1 construct: native channel in pituitary GH3 cells
The assay can be described thus: patch clamp: inside-out single-channel recordings (RFM on cytosolic face) and whole-cell IK(Ca) concentration-response. In kind it is cell-based.

T1 sequence (Q62976 whole entry): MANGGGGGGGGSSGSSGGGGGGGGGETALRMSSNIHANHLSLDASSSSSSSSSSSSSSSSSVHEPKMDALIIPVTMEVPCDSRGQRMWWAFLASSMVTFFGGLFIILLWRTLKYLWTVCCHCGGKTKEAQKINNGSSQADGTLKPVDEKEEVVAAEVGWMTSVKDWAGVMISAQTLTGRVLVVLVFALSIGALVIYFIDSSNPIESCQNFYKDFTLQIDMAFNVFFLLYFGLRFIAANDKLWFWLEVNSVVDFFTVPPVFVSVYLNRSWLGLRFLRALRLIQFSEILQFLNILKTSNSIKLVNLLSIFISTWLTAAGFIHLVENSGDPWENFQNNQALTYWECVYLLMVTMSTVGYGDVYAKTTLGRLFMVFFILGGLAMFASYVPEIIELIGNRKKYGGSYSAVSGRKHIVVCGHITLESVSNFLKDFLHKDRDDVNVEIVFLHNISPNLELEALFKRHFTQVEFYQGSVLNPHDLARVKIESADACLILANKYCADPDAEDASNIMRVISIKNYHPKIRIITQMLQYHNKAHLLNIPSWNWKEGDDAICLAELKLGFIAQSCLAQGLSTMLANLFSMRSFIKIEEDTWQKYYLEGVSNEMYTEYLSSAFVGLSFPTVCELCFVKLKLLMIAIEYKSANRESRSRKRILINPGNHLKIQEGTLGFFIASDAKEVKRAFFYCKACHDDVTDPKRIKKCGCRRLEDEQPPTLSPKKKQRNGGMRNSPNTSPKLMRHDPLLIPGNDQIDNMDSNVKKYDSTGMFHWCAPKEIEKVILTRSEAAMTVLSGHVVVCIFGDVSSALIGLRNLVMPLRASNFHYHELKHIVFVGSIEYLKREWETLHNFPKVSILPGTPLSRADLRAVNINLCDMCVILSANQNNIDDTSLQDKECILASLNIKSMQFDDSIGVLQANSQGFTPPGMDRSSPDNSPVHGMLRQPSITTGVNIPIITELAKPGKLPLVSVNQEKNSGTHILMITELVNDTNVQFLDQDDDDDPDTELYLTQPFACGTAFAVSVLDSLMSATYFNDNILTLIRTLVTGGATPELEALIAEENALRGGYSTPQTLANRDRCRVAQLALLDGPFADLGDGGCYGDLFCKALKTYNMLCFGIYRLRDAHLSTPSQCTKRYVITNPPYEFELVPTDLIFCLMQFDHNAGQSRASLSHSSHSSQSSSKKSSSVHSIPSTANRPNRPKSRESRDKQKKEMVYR

Take `NC(=O)c1cn(Cc2c(F)cccc2F)nn1` [RFM, 1-((2,6-difluorophenyl)methyl)-1H-1,2,3-triazole-4carboxamide]: the EC50 was 3.9 µM.
